Laboratory results reported in PMC9144027, “Evaluation of a Thermophilic, Psychrostable, and Heavy Metal-Resistant Red Sea Brine Pool Esterase” (Marine Drugs, 2022).

Test system: T1, EstATII-TM (EstATII, A126V)
T1 construct: full ORF (945 bp) in pET-SUMO, His-tagged SUMO fusion, E. coli BL21(DE3), Ni column; 55 kDa; tag cleavage not mentioned; KC958722 is the wild-type nucleotide record; tested form carries A126V
Test: p-nitrophenol release at […] nm, nonlinear Michaelis-Menten fit
Assay type: biochemical, uncultured bacterium
Details: 30 °C, pH 7.5; substrate range 0.01-1 mM; no added metal; Table 1 prints 0.03 (±0.01) μmol; unit doubtful (substrate range suggests mM)

CCCC(=O)Oc1ccc([N+](=O)[O-])cc1 [p-nitrophenyl butyrate]
Km: 0.0303 mM
